Columns and labels:
[1] = system: C38 adenocarcinoma of the colon; assay: Anti-tumour activity with respect to C38 adenocarcinoma of the colon; type: in vivo; settings: i.v. on days 12 and 22, s.c. C38 in B6D2F1 mice
Method: Anti-Tumour Activity with Respect to C38 Adenocarcinoma of the Colon
Tumour fragments of C38 adenocarcinoma of the colon weighing approximately 30 mg were implanted under the skin of B6D2F1 mice (Iffa Credo, France) on day 0. After growth of the tumour, the mice were divided into control (18 animals) and treated (6 or 7 animals) groups, which were homogeneous with respect to tumour size. The products were administered twice by the i.v. route on days 12 and 22, at their Maximum Tolerated Dose (MTD), MTD/2 and MTD/4.
The tumours were measured twice a week and the tumour volumes were calculated according to the following formula: volume (mm^3)=length (mm)×[…]/2.
The anti-tumour activity is expressed as % T/C: […]
V0 and Vt being the initial volume of the tumour and its volume at measurement time t, respectively.
The optimum dose is the dose giving the lowest T/C value without toxicity (early death or weight loss greater than 20%).

L1210 murine leukaemia = assay: In vitro cytotoxicity, Microculture Tetrazolium Assay, L1210; type: cell-based; settings: L1210, 2 days incubation; read-out: IC50 (concentration which inhibits proliferation of the treated cells by 50%)
Method: (§1) Four cell lines were used: • 1 murine leukaemia: L1210, • 1 human epidermoid carcinoma: KB-3-1, • 1 human colon carcinoma: HT29, • 1 human prostate carcinoma: LNCap.
(§2) The cells are cultured in RPMI 1640 complete culture medium containing 10% foetal calf serum, 2 mM glutamine, 50 units/ml of penicillin, 50 μg/ml of streptomycin and 10 mM Hepes, pH=7.4. The cells are distributed on microplates and are exposed to the cytotoxic compounds. The cells are then incubated for 2 days (L1210) or 4 days (human lines). The number of viable cells is then quantified by a colorimetric assay, the Microculture Tetrazolium Assay (Cancer Res. 1987, 47, 939-942). The results are expressed in terms of the IC50 (the concentration of cytotoxic agent which inhibits proliferation of the treated cells by 50%).

[2] = system: KB-3-1 human epidermoid carcinoma; assay: In vitro cytotoxicity, Microculture Tetrazolium Assay, KB-3-1; type: cell-based; settings: KB-3-1, 4 days incubation; read-out: IC50 (concentration which inhibits proliferation of the treated cells by 50%)
Method: as §1, §2

[3] = system: HT29 human colon carcinoma; assay: In vitro cytotoxicity, Microculture Tetrazolium Assay, HT29; type: cell-based; settings: HT-29, 4 days incubation; read-out: IC50 (concentration which inhibits proliferation of the treated cells by 50%)
Method: as §1, §2

[4] = system: LNCap human prostate carcinoma; assay: In vitro cytotoxicity, Microculture Tetrazolium Assay, LNCap; type: cell-based; settings: 4 days incubation, read-out: IC50 (concentration which inhibits proliferation of the treated cells by 50%)
Method: as §1, §2

Q: For `COc1cc2c(c3c1c(=O)c1ccccc1n3C)C=CC(C)(C)O2` [acronycine, reference compound], which T/C ([1]; optimum dose of 100 mg/kg) is on record?
A: 27%

Q: `COc1cc2c(c3c1c(=O)c1c4ccccc4ccc1n3C)[C@H]1OC(=O)O[C@H]1C(C)(C)O2` (racemic) [Example 6, (±)-cis-7-Methoxy-4,4,15-trimethyl-15,15c-dihydro-4H-benzo[α][1,3]-dioxolo[4′,5′:4,5]pyrano[3,2-h]acridine-2,8[3aH]-dione] was tested. Which IC50 (L1210 murine leukaemia) did it give?
A: 60 nM

Q: And the IC50 [2]?
A: 15 nM

Q: For `COc1cc2c(c3c1c(=O)c1c4ccccc4ccc1n3C)[C@@H](OC(C)=O)[C@@H](OC(C)=O)C(C)(C)O2` (racemic) [Example 5, (±)-cis-1,2-Diacetoxy-6-methoxy-3,3,14-trimethyl-1,2,3,14-tetrahydro-7H-benzo[α]pyrano[3,2-h]-acridin-7-one], which IC50 (L1210 murine leukaemia) is on record?
A: 730 nM

Q: And the IC50 [2]?
A: 140 nM

Q: What about the T/C ([1]; optimum dose of 4 mg/kg) of the same compound?
A: 5%

Q: And the “inhibition of the tumour growth” value ([1]; optimum dose of 4 mg/kg)?
A: 95%

Q: And the IC50 [3]?
A: 1180 nM

Q: And the IC50 [4]?
A: 570 nM

Reference: patent publication US7276512B2, “Benzo[a]pyrano[3,2-h]acridin-7-one compounds” (Les Laboratoires Servier, priority 2003, dated 2007)
